# Tests used:
# Bacillus cereus [1] = assay: Bactericidal/bacteriostatic activity (CFU), Bacillus cereus; format: cell-based
# Staphylococcus aureus = assay: Bactericidal/bacteriostatic activity (CFU), Staphylococcus aureus; format: cell-based; conditions: 1 to 2 hours, FIG. 2B
# [2] = tested on: human acute monocytic leukemia cells (THP1 cells); assay: Growth of THP1 cells, MTT metabolic assay; format: cell-based; conditions: Homo sapiens, THP-1, 24 h, read-out: drop in cell viability
# Experimental: THP1 cells were either mock-treated (DMSO vehicle alone), or treated with increasing doses of new compounds 37 and 45, from 0 to 32 μg/mL. Cells were incubated in the presence of compound for 24 hours, and subsequently were assayed for total cell viability using an MTT, metabolic assay.
# [3] = In vivo tolerance in mice; conditions: highest dose, 50 mg/kg
# Bacillus cereus [4] = assay: Pre-incubation of compound in MHB medium, inhibitory activity against Bacillus cereus; format: cell-based; conditions: initial concentration equal to the MIC value; FIG. 5
# Experimental: Preincubation of Compound 37 in Culture Medium and Its Effect on Growth-Inhibitory Activity. Compound 37 was added to liquid Muller-Hinton Broth (MHB) medium in microtiter plate to final concentration 2 mg/ml and incubated for the periods of time indicated in FIG. 5 before addition to cultures of B. cereus. After incubation for 20 h at 37° C., bacterial growth was assessed by measuring of the turbidity at 600 nm.
# ITC compounds can react with amine- and thiol-containing components of the culture media with the formation of corresponding thioureas and dithiocarbamates. The effect of pre-incubation of Compound 37 in MHB medium on its inhibitory activity against Bacillus cereus was determined at an initial concentration equal to the MIC value. While no growth of the bacteria occurs upon immediate addition of the inhibitor, progressive growth is observed as a function of pre-incubation time.
# [5] = tested on: Mycobacterium tuberculosis H37Rv strain; assay: In vitro infection model, bacterial growth inhibition in infected macrophages; format: cell-based; conditions: M. tuberculosis H37Rv; up to 1 μg/mL; Rifampicin control
# Text: Rifampicin was used as a control for this experiment.
# virus (92TH594) = assay: Viral proliferation in PBMC, p24 viral antigen; format: cell-based; conditions: PBMC
# Candida crusei 6258^mdr [6] = assay: microbe, parasite or virus in culture; conditions: read-out: Anti-Fungal Activity (MIC)
# [7] = tested on: human peritoneal macrophages infected with Mycobacterium tuberculosis H37Rv strain; assay: In vitro infection model, cytotoxicity; conditions: up to 1 μg/mL; Rifampicin control
# [8] = tested on: Staphylococcus epidermidis BK12798; assay: MIC, Staphylococcus epidermidis BK12798
# Candida albicans 90028 = assay: Anti-fungal MIC, Candida albicans 90028
# Candida albicans 90030 = assay: Anti-fungal MIC, Candida albicans 90030
# Candida dlabrata 250^mdr = assay: Anti-fungal MIC, Candida dlabrata 250^mdr
# [9] = tested on: Candida albicans 5108^mdr; assay: Anti-fungal MIC, Candida albicans 5108^mdr
# [10] = tested on: Candida parapsilosis 22019; assay: Anti-fungal MIC, Candida parapsilosis 22019
# [11] = tested on: Aspergillus fumigatus Rit 1; assay: Anti-fungal MIC, Aspergillus fumigatus Rit 1
# [12] = tested on: Aspergillus fumigatus Rit 11; assay: Anti-fungal MIC, Aspergillus fumigatus Rit 11
# [13] = tested on: Aspergillus fumigatus Rit 21; assay: Anti-fungal MIC, Aspergillus fumigatus Rit 21
# [14] = tested on: Cryptococcus neoformans CNH99; assay: Anti-fungal MIC, Cryptococcus neoformans CNH99
# Candida crusei 6258^mdr [15] = tested on: Candida crusei 6258^mdr
# [16] = compound 2.5 μg/ml, added to the cells after viral infection
# [17] = compound 2.5 μg/ml, added to the cells before viral infection
# [18] = compound 10 μg/ml, added to the cells after viral infection
# [19] = compound 10 μg/ml, added to the cells before viral infection
# [20] = Staphylococcus epidermidis BK12798, Gram +, 24 hours of incubation
structure (smiles),measurement,setting,value
S=C=NCc1ccc(CN=C=S)cc1 [Compound 37],bacterial growth at 20 h,"Bacillus cereus [1]; Compound at 4 μg/ml, data not shown",no bacterial growth was detected
same,cell viability of Bacillus cereus (CFU),"Bacillus cereus [1]; incubation 1 to 2 hours, FIG. 2A",dramatic decrease in cell viability
same,effect on Staphylococcus aureus cultures,Staphylococcus aureus,bacteriostatic effect
same,cytotoxicity at 8 µg/mL,[2],~25%
same,toxicity in treated mice,[3],no toxicity was observed
same,effect of pre-incubation in MHB medium on inhibitory activity,Bacillus cereus [4],decrease of inhibition potency
same,growth inhibitory activity in infected macrophages,[5],gave similar results
same,P24 values,virus (92TH594); [16],760 pg/mL
same,P24 values,virus (92TH594); [17],210 pg/mL
same,P24 values,virus (92TH594); [18],340 pg/mL
same,P24 values,virus (92TH594); [19],0 pg/mL
same,MIC,Candida crusei 6258^mdr [6],0.5 µg/mL
same,cytotoxicity in infected macrophages,[7],exhibited more toxicity
same,MIC,"[8]; Staphylococcus epidermidis, BK12798, 24 h",0.5 µg/mL
same,MIC,"Candida albicans 90028; Candida albicans, 90028, read-out: Anti-Fungal Activity (MIC)",0.5 µg/mL
same,MIC,"Candida albicans 90030; Candida albicans, 90030, read-out: Anti-Fungal Activity (MIC)",0.5 µg/mL
same,MIC,"Candida dlabrata 250^mdr; Candida, 48 h, read-out: Anti-Fungal Activity (MIC)",0.125 µg/mL
same,MIC,"[9]; Candida albicans, read-out: Anti-Fungal Activity (MIC)",0.5 µg/mL
same,MIC,"[10]; 22019, read-out: Anti-Fungal Activity (MIC)",0.5 µg/mL
same,MIC,"[11]; Aspergillus fumigatus, RIT1, read-out: Anti-Fungal Activity (MIC)",0.5 µg/mL
same,MIC,"[12]; Aspergillus fumigatus, RIT11, read-out: Anti-Fungal Activity (MIC)",0.5 µg/mL
same,MIC,"[13]; Aspergillus fumigatus, RIT21, read-out: Anti-Fungal Activity (MIC)",0.5 µg/mL
same,MIC,"[14]; Cryptococcus neoformans, CNH99, read-out: Anti-Fungal Activity (MIC)",< 1 µg/mL
"S=C=NCCCCCCCN=C=S [Compound 41, S═C═N—(CH2)7—N═C═S]",Anti-Fungal Activity (MIC),Candida crusei 6258^mdr [15],2 µg/mL
same,MIC,[8]; [20],4 µg/mL
same,Anti-Fungal Activity (MIC),Candida albicans 90028; Candida albicans 90028,8 µg/mL
same,Anti-Fungal Activity (MIC),Candida albicans 90030; Candida albicans 90030,<1 µg/mL
same,Anti-Fungal Activity (MIC),Candida dlabrata 250^mdr; Candida dlabrata 250^mdr,<1 µg/mL
same,Anti-Fungal Activity (MIC),[9]; Candida albicans 5108^mdr,8 µg/mL
same,Anti-Fungal Activity (MIC),[10]; Candida parapsilosis 22019,2 µg/mL
same,Anti-Fungal Activity (MIC),[11]; Aspergillus fumigatus Rit 1,4 µg/mL
same,Anti-Fungal Activity (MIC),[12]; Aspergillus fumigatus Rit 11,4 µg/mL
same,Anti-Fungal Activity (MIC),[13]; Aspergillus fumigatus Rit 21,4 µg/mL
same,Anti-Fungal Activity (MIC),[14]; Cryptococcus neoformans CNH99,<1 µg/mL
"S=C=NCCCCCCCCN=C=S [Compound 42, S═C═N—(CH2)8—N═C═S]",toxicity in treated mice,[3],no toxicity was observed
same,growth inhibitory activity in infected macrophages,[5],gave similar results
same,P24 values,virus (92TH594); [16],630 pg/mL
same,P24 values,virus (92TH594); [17],220 pg/mL
same,P24 values,virus (92TH594); [18],700 pg/mL
same,P24 values,virus (92TH594); [19],0 pg/mL
same,cytotoxicity in infected macrophages,[7],exhibited more toxicity
same,MIC,[8]; [20],2 µg/mL
